pEC50: −log10 of the molar value. Where two headings read alike, the source gives them in different places.
Biological target: T1, human cannabinoid CB2 receptor (Homo sapiens, UniProt P34972)
T1 construct: expressed in transfected cells; host or cells: Saccharomyces cerevisiae strain MMY23 (cassette integrated at the ura3 locus, GPD promoter)
Assay: Cannabinoid CB2 receptor agonist activity in yeast (Saccharomyces cerevisiae) cells expressing the receptor, FDGlu fluorescence readout;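 as to Emax: percent of the maximal response of the reference agonist HU210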
Format: cell-based
Details: for Emax: read-out: efficacy (Emax) at the cloned human cannabinoid CB2 receptor
Protocol: Determination of Cannabinoid CB2 Receptor Agonist Activity
The cannabinoid CB2 receptor agonist activity of the compounds of formula (I) was determined in accordance with the following experimental method.
Yeast (Saccharomyces cerevisiae) cells expressing the human cannabinoid CB2 receptor were generated by integration of an expression cassette into the ura3 chromosomal locus of yeast strain MMY23. This cassette consisted of DNA sequence encoding the human CB2 receptor flanked by the yeast GPD promoter to the 5′ end of CB2 and a yeast transcriptional terminator sequence to the 3′ end of CB2. MMY23 expresses a yeast/mammalian chimeric G-protein alpha subunit in which the C-terminal 5 amino acids of Gpa1 are replaced with the C-terminal 5 amino acids of human Gαi3 (as described in Brown et aL (2000), Yeast 16:11-22). Cells were grown at 30° C. in liquid Synthetic Complete (SC) yeast media (Guthrie and Fink (1991), Methods in Enzymology, Vol. 194) lacking uracil, tryptophan, adenine and leucine to late logarithmic phase (approximately 6 OD600/ml).
Agonists were prepared as 10 mM stocks in DMSO. […] Agonist solutions in DMSO (1% final assay volume) were transferred into black, clear bottom, microtitre plates from NUNC (96- or 384-well). […] This mixture (50 ul per well for 384-well plates, 200 ul per well for 96-well plates) was added to agonist in the assay plates (Multidrop 384, Labsystems). After incubation at 30° C. for 24 hours, fluorescence resulting from degradation of FDGlu to fluorescein due to exoglucanase, an endogenous yeast enzyme produced during agonist-stimulated cell growth, was determined using a Spectrofluor microtitre plate reader (Tecan; excitation wavelength: 485 nm; emission wavelength: 535 nm). Fluorescence was plotted against compound concentration and iteratively curve fitted using a four parameter fit to generate a concentration effect value. […] Equieffective molar ratio (EMR) values were calculated from the equation EMR=EC50 [compound X]/EC50 [HU210]
Where EC50 [compound X] is the EC50 of compound X and EC50 [HU210] is the EC50 of HU210.

[1] = agonist activity, yeast cells, 24 hours at 30° C., read-out: EC50 at the cloned human cannabinoid CB2 receptor

T1 sequence (P34972 whole entry): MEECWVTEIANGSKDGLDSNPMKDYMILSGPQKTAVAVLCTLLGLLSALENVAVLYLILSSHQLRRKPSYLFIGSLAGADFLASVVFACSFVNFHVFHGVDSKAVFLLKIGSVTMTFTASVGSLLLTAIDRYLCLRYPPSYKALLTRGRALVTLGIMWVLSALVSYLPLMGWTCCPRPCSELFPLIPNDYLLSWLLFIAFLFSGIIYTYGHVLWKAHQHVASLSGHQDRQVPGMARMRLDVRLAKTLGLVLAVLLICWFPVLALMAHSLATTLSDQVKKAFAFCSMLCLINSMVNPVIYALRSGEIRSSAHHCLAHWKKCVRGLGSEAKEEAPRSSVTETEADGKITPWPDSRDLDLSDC

| pEC50 [1] | SMILES | pEC50 | Emax [%] |
| --- | --- | --- | --- |
|  | O=C(NCc1ccc(F)cc1)c1cnc(Nc2ccc(Cl)cc2Cl)cc1C(F)(F)F [Example 52] | > 6.52 | > 50 |
| > 6.52 | CC(C)c1cc(Nc2cc(Cl)ccc2F)ncc1C(=O)NCc1ccc(F)cc1 [Example 72, 6-(5-Chloro-2-fluoro-phenylamino)-N-(4-fluoro-benzyl)-4-isopropyl-nicotinamide] |  |  |
|  | O=C(NCc1ccnc(F)c1)c1cnc(Nc2cc(Cl)cc(Cl)c2)cc1C(F)(F)F [Example 54, N-(2-Fluoro-pyridin-4-ylmethyl)-6-(3,5-dichloro-phenylamino)-4-trifluoromethyl-nicotinamide] | > 6.52 | > 50 |
|  | Cc1c(Cl)cccc1Nc1cc(C(C)C)c(C(=O)NCc2ccc(F)cc2)cn1 [Example 28, 6-(3-Chloro-2-methyl-phenylamino)-N-(4-fluoro-benzyl)-4-isopropyl-nicotinamide] | 6.00 to 6.52 | > 50 |
|  | CC(C)c1cc(Nc2cccc(Cl)c2)ncc1C(=O)NCc1ccccc1 [Example 4, N-Benzyl-6-(3-chloro-phenylamino)-4-isopropyl-nicotinamide] | > 6.52 | > 50 |
|  | O=C(NCc1ccc(F)cc1)c1cnc(Nc2cccc(F)c2)cc1C(F)(F)F [Example 49, N-(4-Fluoro-benzyl)-6-(3-fluoro-phenylamino)-4-trifluoromethyl-nicotinamide] | > 6.52 | > 50 |
|  | O=C(NCc1ccncc1)c1ccc(Nc2cccc(Cl)c2)nc1C(F)(F)F [Example 78, 6-(3-Chloro-phenylamino)-N-(pyridin-4-ylmethyl)-2-trifluoromethyl-nicotinamide] | > 6.52 | > 50 |
|  | O=C(NCc1ccnc(F)c1)c1cnc(Nc2ccc(Cl)cc2Cl)cc1C(F)(F)F [Example 51, N-(2-Fluoro-pyridin-4-ylmethyl)-6-(2,4-dichloro-phenylamino)-4-trifluoromethyl-nicotinamide] | > 6.52 | > 50 |
|  | Cc1cccc(Nc2cc(C(C)C)c(C(=O)NCc3ccc(F)cc3)cn2)c1 [Example 29, N-(4-Fluoro-benzyl)-4-isopropyl-6-m-tolylamino-nicotinamide] | 6.00 to 6.52 | > 50 |
|  | COc1cccc(Nc2cc(C(C)C)c(C(=O)NCc3ccc(F)cc3)cn2)c1 [Example 30] | 6.00 to 6.52 | > 50 |
|  | O=C(NCc1ccc(F)cc1)c1cnc(Nc2cccc(Br)c2)cc1C(F)(F)F [Example 46, N-(4-Fluoro-benzyl)-6-(3-bromo-phenylamino)-4-trifluoromethyl-nicotinamide] |  | > 50 |
|  | CC(C)c1cc(Nc2ccc(Cl)cc2Br)ncc1C(=O)NCc1ccc(F)cc1 [Example 70, 6-(2-Bromo-4-chloro-phenylamino)-N-(4-fluoro-benzyl)-4-isopropyl-nicotinamide] | > 6.52 | > 50 |
|  | O=C(NCc1ccnc(F)c1)c1cnc(Nc2cccc(Cl)c2Cl)cc1C(F)(F)F [Example 50, N-(2-Fluoro-pyridin-4-ylmethyl)-6-(2,3-dichloro-phenylamino)-4-trifluoromethyl-nicotinamide] | > 6.52 | > 50 |
|  | O=C(NCc1ccc(F)cc1)c1cnc(Nc2cc(Cl)cc(Cl)c2)cc1C(F)(F)F [Example 53] | > 6.52 | > 50 |
| > 6.52 | Cc1cc(C#N)ccc1Nc1cc(C(C)C)c(C(=O)NCc2ccc(F)cc2)cn1 [Example 73, 6-(4-Cyano-2-methyl-phenylamino)-N-(4-fluoro-benzyl)-4-isopropyl-nicotinamide] |  |  |
|  | CC(C)c1cc(Nc2ccc(C#N)c(Cl)c2)ncc1C(=O)NCc1ccc(F)cc1 [Example 23, 6-(3-Chloro-4-cyano-phenylamino)-N-(4-fluoro-benzyl)-4-isopropyl-nicotinamide] | > 6.52 | > 50 |
|  | CC(C)c1cc(Nc2cc(Cl)ccc2Cl)ncc1C(=O)NCc1ccc(F)cc1 [Example 74, 6-(2,5-Dichloro-phenylamino)-N-(4-fiuoro-benzyl)-4-isopropyl-nicotinamide] | 6.00 to 6.52 | > 50 |
|  | CC(C)c1cc(Nc2ccc(Cl)cc2Cl)ncc1C(=O)NCc1ccc(F)cc1 [Example 22, 6-(2,4-Dichloro-phenylamino)-N-(4-fluoro-benzyl)-4-isopropyl-nicotinamide] | > 6.52 | > 50 |

| pEC50 [1] | SMILES | pEC50 | Emax [%] |
| --- | --- | --- | --- |
|  | CC(C)c1cc(Nc2ccc(F)cc2Cl)ncc1C(=O)NCc1ccc(F)cc1 [Example 71, 6-(2-Chloro-4-fluoro-phenylamino)-N-(4-fluoro-benzyl)-4-isopropyl-nicotinamide] | > 6.52 | > 50 |
| 6.00 to 6.52 | CC(C)c1cc(Nc2cccc(Cl)c2)ncc1C(=O)NCc1ccc(C(N)=O)cc1 [Example 8, N-(4-Carbamoyl-benzyl)-6-(3-chloro-phenylamino)-4-isopropyl-nicotinamide] |  |  |
|  | CC(C)c1cc(Nc2cccc(Cl)c2)ncc1C(=O)NCc1ccc(C#N)cc1 [Example 5, 6-(3-Chloro-phenylamino)-N-(4-cyano-benzyl)-4-isopropyl-nicotinamide] | 6.00 to 6.52 | > 50 |
|  | O=C(NCc1ccccc1)c1cnc(Nc2cccc(Cl)c2)cc1C(F)(F)F [Example 2, 2-(3-Chlorophenylamino)-4-trifluoromethylpyridine-5-carboxylic acid benzylamide] | > 6.52 | > 50 |
| > 6.52 | CC(C)c1cc(Nc2ccc(F)c(Cl)c2)ncc1C(=O)NCc1ccc(F)cc1 [Example 15, 6-(3-Chloro-4-fluoro-phenylamino)-N-(4-fluoro-benzyl)-4-isopropyl-nicotinamide] |  |  |
|  | CC(C)c1cc(Nc2cccc(F)c2)ncc1C(=O)NCc1ccc(F)cc1 [Example 17, N-(4-Fluoro-benzyl)-6-(3-fluoro-phenylamino)-4-isopropyl-nicotinamide] | > 6.52 | > 50 |
|  | CC(C)c1cc(Nc2ccc(Br)c(Cl)c2)ncc1C(=O)NCc1ccc(F)cc1 [Example 75, 6-(4-Bromo-3-chloro-phenylamino)-N-(4-fluoro-benzyl)-4-isopropyl-nicotinamide] | 6.00 to 6.52 | > 50 |
|  | COc1ccc(CNC(=O)c2cnc(Nc3cccc(Cl)c3)cc2C(C)C)cc1 [Example 6, 6-(3-Chloro-phenylamino)-4-isopropyl-N-(4-methoxy-benzyl)-nicotinamide] | 6.00 to 6.52 | > 50 |
|  | CC(C)c1cc(Nc2ccc(Cl)c(Cl)c2)ncc1C(=O)NCc1ccc(F)cc1 [Example 32, 6-(3,4-Dichloro-phenylamino)-N-(4-fluoro-benzyl)-4-isopropyl-nicotinamide] | 6.00 to 6.52 | > 50 |
|  | Cc1cccc(Nc2cc(C(C)C)c(C(=O)NCc3ccc(F)cc3)cn2)c1C#N [Example 16, 6-(2-Cyano-3-methyl-phenylamino)-N-(4-fluoro-benzyl)-4-isopropyl-nicotinamide] | 6.00 to 6.52 | > 50 |
| 6.00 to 6.52 | CC(C)c1cc(Nc2ccc(C(F)(F)F)c(F)c2)ncc1C(=O)NCc1ccc(F)cc1 [Example 76, N-(4-fluoro-benzyl)-6-(3-Fluoro-4-trifluormethyl-phenylamino)-4-isopropyl-nicotinamide] |  |  |
|  | CC(C)c1cc(Nc2cccc(Cl)c2F)ncc1C(=O)NCc1ccc(F)cc1 [Example 26, 6-(3-Chloro-2-fluoro-phenylamino)-N-(4-fluoro-benzyl)-4-isopropyl-nicotinamide] | 6.00 to 6.52 | > 50 |
|  | CC(C)c1cc(Nc2cccc(OC(F)(F)F)c2)ncc1C(=O)NCc1ccc(F)cc1 [Example 25, N-(4-Fluoro-benzyl)-4-isopropyl-6-(3-trifluoromethoxy-phenylamino)-nicotinamide] | 6.00 to 6.52 | > 50 |
|  | Cc1c(Br)cccc1Nc1cc(C(C)C)c(C(=O)NCc2ccc(F)cc2)cn1 [Example 27, 6-(3-Bromo-2-methyl-phenylamino)-N-(4-fluoro-benzyl)-4-isopropyl-nicotinamide] | 6.00 to 6.52 | > 50 |
|  | O=C(NCc1ccc(F)cc1)c1cnc(Nc2ccc(Cl)c(Cl)c2)cc1C(F)(F)F [Example 55, N-(4-Fluoro-benzyl)-6-(3,4-dichloro-phenylamino)-4-trifluoroinethyl-nicotinainide] | > 6.52 | > 50 |
|  | Cc1ccc(Cl)cc1Nc1cc(C(F)(F)F)c(C(=O)NCc2ccncc2)cn1 [Example 57, N-(Pyridin-4-ylmethyl)-6-(2-methyl-5-chloro-phenylamino)-4-trifluoromethyl-nicotinamide] | > 6.52 | > 50 |
| 6.00 to 6.52 | CC(C)c1cc(Nc2ccc(Br)cc2F)ncc1C(=O)NCc1ccc(F)cc1 [Example 31, 6-(4-Bromo-2-fluoro-phenylamino)-N-(4-fluoro-benzyl)-4-isopropyl-nicotinamide] |  |  |
